Source: patent US11813264B2, “PAR1 modulation to alter myelination” (Mayo Foundation for Medical Education and Research, priority 2014, dated 2023)

Assays:
Erk1/2 phosphorylation = assay: Klk6-PAR signaling assay, Erk1/2 phosphorylation by Western blot in Oli-neu; type: cell-based, mouse; settings: treatment alone; Klk6 10 minutes
Procedure: Klk6-PAR signaling assays: To examine the ability of Klk6 to mediate PAR-dependent signaling in oligodendrocytes, Oli-neu oligodendroglia (3.5×10^5 cells/well in six-well plates) were treated with Klk6 (150 nM) for 10 min, followed by protein harvest. Cell lysates were analyzed for phosphorylated or nonphosphorylated Erk1/2 by Western blot. In experiments to determine the role of PARs in Klk6 signaling, Oli-neu were preincubated with the PAR1 antagonist, SCH79797 dihydrochloride (50 nM, Tocris Biosciences, Minneapolis, MN) for 30 minutes prior to Klk6 application.
Western blot: Oli-neu lysates were obtained using a buffer containing 1% NP40, 0.5% deoxycholate, 10% glycerol, and 20 mM Tris base and separated on SDS-polyacrylamide gels prior to transfer. Membranes were blocked with 5% milk in TBS-T and incubated overnight with primary antibodies including rabbit anti-phospho-Erk1/2 (1:1,000, Cell Signaling Technology, Danvers, MA), followed with a species-appropriate horseradish peroxidase-conjugated secondary antibody (1:20,000 GE Healthcare Unlimited, UK). Signal was detected using Chemiluminescence Supersignal Pico (Pierce, Rockford, IL). Western blots were repeated three times from independent cultures, scanned, and quantified by densitometry (BioRad Quantity One 1-D Analysis Software, BioRad, Hercules, CA). Erk1/2 signal was normalized to its nonphosphorylated form. Equal loading was verified by reprobing blots for […] (Novus Biologicals, Littleton, CO).

spinal cord white matter = assay: Microinjection of Klk6 or PAR1-AP into spinal cord dorsal column white matter; type: in vivo, mouse
Procedure: In vivo effects of excess Klk6 or PAR1-AP in spinal cord white matter: All mice were administered Buprenorphine preoperatively (Buprenex, 0.03 mg/kg, intraperitoneal (i.p.), Reckitt Benckise, Slough, UK) and every 12 hours for the first 48 hours following surgery. Surgical anesthesia was induced in age-matched male C57BL6/J or PAR12/2 mice using Ketamine (Ketaset, 80 mg/kg, Fort Dodge Animal Health, Fort Dodge, IA) and Xylazine i.p. (Anased, 10 mg/kg, Lloyd Laboratories, Shenendoah, IA). A thoracic (T11-T12) laminectomy was performed and a 30-40 μm glass capillary needle inserted into a 10 μL gas-tight Hamilton Syringe (Hamilton Company, Reno, NV) used to deliver 2 μL of Klk6 (0.01 μg/μL (300 nM)), PAR1-AP (0.01 μg/μL (100 μM)), or vehicle (physiologic saline) alone (n=3 for each treatment group) using a stereotaxic injection system (Stoelting, Wood Dale, IL). Under micromanipulator control (MyNeurolab, Richmond, IL), the needle was inserted 350 μm into the dorsal column, infusion carried out over 5 minutes and the needle left in place for 3 minutes to avoid backflow. All mice received 0.5 mL of sterile saline and Baytril (2.5 mg/kg, Bayer Healthcare, Shawnee Mission, KS) i.p. postoperatively.
Seventy-two hours after microinjection of PAR1 agonists, mice were deeply anesthetized with Nembutal (50 mg/kg, i.p., Lundbeck, Deerfield, IL) and perfused transcardially with 4% PFA. Two millimeter transverse spinal cord segments encompassing the microinjection epicenter as well as 2 mm rostral and caudal were embedded in paraffin. Six micrometer sections were cut and slide mounted serially. Every sixth slide was stained with hematoxylin and eosin (H&E). Adjacent sections were immunostained for oligodendroglia using an antibody specific for CC-1/APC (ab16794, AbCam, Cambridge, MA), myelin using an antibody recognizing MBP (MAB386, Millipore, Bedford, MA), and standard avidin-biotin immunoperoxidase techniques (Scarisbrick et al., J Comp Neurol 431:347-361, 2001; and Scarisbrick et al. 2012b, supra). Stained sections were cover slipped with Permount (Fisher Scientific, Pittsburgh, PA) containing 2 mg/mL bisbenzamide to visualize nuclei (Sigma Aldrich).
Measurements of white matter lesion area were based on signs of pathology (vacuolation, tissue destruction, hemorrhage) in 20× digital images of H&E stained sections. The largest lesion area in each animal was used to determine mean maximal lesion area and expressed in μm^2. The integrity of MBP immunoreactivity was assessed in sections for 2,000 μm rostrocaudal to the microinjection site. The number of dorsal column CC-1^+/DAPI^+ cells was quantified in sections across […] of spinal cord extending rostrocaudal to the epicenter. The mean area of dorsal column white matter in the intact spinal cord was approximately […]. To put the number of CC-1^+ oligodendrocytes into context, the mean number CC-1V cells per mm^2 was evaluated as the mean number per […]. Sections stained for CC-1 were also stained for GFAP (Sigma Aldrich), allowing for the exclusion of CC-1^+ astrocytes; however, no examples of double labeled cells were observed.

Klk6: Recombinant murine kallikrein-related peptidase 6 expressed using a baculovirus system
Erk1/2 phosphorylation (Erk1/2 phosphorylation): nearly four-fold increase
maximal lesion area relative to saline alone (spinal cord white matter; PAR1+/+ mice): enhanced
reduction of CC-1+ cells in dorsal column white matter (spinal cord white matter; PAR1+/+ mice): ~15%
rostrocaudal white matter pathology versus saline alone (spinal cord white matter; PAR1+/+ mice): two-fold greater
loss of MBP-immunoreactivity relative to saline alone (spinal cord white matter; PAR1+/+ mice, 72 hours): ~45%
white matter surrounding injection site with vacuolating myelinopathy, tissue destruction and hemorrhage (spinal cord white matter; PAR1+/+ mice, 0.02 μg total, 72 hours): over 1,200 μm
rostrocaudal white matter pathology (spinal cord white matter; PAR1+/+ mice, 0.02 μg, 72 hours): 1,242.0±95.3 μm
white matter pathology (spinal cord white matter; PAR1-/- mice): largely absent
